{"source": "patent US20190192699A1", "about": "“NUCLEAR IMAGING AND RADIOTHERAPEUTICS AGENTS TARGETING CARBONIC ANHYDRASE IX AND USES THEREOF” (THE JOHNS HOPKINS UNIVERSITY, priority 2016, published 2019)", "key": {"[1]": {"test_system": "CAIX-expressing SK-RC-52 tumors", "assay": "PET/CT imaging of [Al18F]XYIMSR-04", "format": "in vivo, mice", "conditions": "7.4 MBq (200 μCi) via tail vein", "method": "(§1) Cell Lines and Mouse Models. Animal experiments were performed in accordance with protocols approved by the Johns Hopkins Animal Care and Use Committee (ACUC). Six-week-old female NOD/SCID mice were purchased from the Animal Resource Core of the Sidney Kimmel Comprehensive Cancer Center of Johns Hopkins and were subcutaneously injected in the lower left flank or upper right flank with 1×10^6 SK-RC-52 cells in RPMI 1640 GlutaMAX™ media (Life Technologies, Frederick, Md.) supplemented with 1% fetal bovine serum (FBS). Mice were monitored for tumor size and used for SPECT/CT imaging when the size of the tumor reached 100 mm^3.\nPET/CT imaging of [Al^18F]XYIMSR-04. Mice harboring subcutaneous SK-RC-52 tumors with the lower left flank were injected with 7.4 MBq (200 μCi) of [Al^18F]XYIMSR-04 in 250 μL of PBS (pH=7.0) intravenously (tail vein). Anesthesia was then induced with 3% isofluorane and maintained at 2% isoflurane. Physiologic temperature was maintained with an external light source while the mouse was on the gantry. […] Whole body 2-bed PET scan was performed using ARGUS small-animal PET/CT scanner (Sedecal, Madrid, Spain) at 250-700 keV energy window. PET acquisition times were: 5 min/bed (1 h) post-injection of [Al^18F]XYIMSR-04. PET images were co-registered with the corresponding 360-slice CT images. […]"}, "SK-RC-52 xenografts": {"test_system": "SK-RC-52 xenografts", "assay": "Biodistribution of [Al18F]XYIMSR-04", "format": "in vivo, mice", "conditions": "1 h post-injection", "method": "as §1\nBiodistribution of [Al^18F]XYIMSR-04. Mice bearing SK-RC-52 xenografts within the lower left flank were injected intravenously with 740 kBq (20 μCi) of [Al^18F]XYIMSR-04 in 200 μL of PBS. At specific 1 hour time point mentioned in the paper, mice (n=5) were sacrificed by cervical dislocation and the blood was immediately collected by cardiac puncture. Heart, lungs, pancreas, spleen, fat, brain, muscle, small intestines, liver, bone, stomach, kidney, urinary bladder, and tumor were collected. Each organ was weighed and the tissue radioactivity was measured with an automated gamma counter (1282 Compugamma CS, Pharmacia/LKBNuclear, Inc., Mt. Waverly, Vic. Australia). The percentage of injected dose per gram of tissue (% ID/g) was calculated by comparison with samples of a standard dilution of the initial dose. All measurements were corrected for radioactive decay. Data were expressed as mean±standard deviation (SD). Prism software (GraphPAD, San Diego, Calif.) was used to determine statistical significance. Statistical significance was calculated using a paired t test. P-values […] were considered significant."}}, "note": "Where “and” joins values, the source holds several entries; their conditions need not be identical. Equal entries are not always repeated. Entries after “also recorded” stand apart in the source; their conditions may differ.", "data": [{"smiles": "CC(CCC(=O)N[C@@H](CC(=O)N[C@@H](CC(=O)N[C@@H](CCCCn1cc(CCCC(=O)Nc2nnc(S(N)(=O)=O)s2)nn1)C(=O)NCCOCCOCCNC(=O)CN1CCN2CCN(CC1)CC(=O)[O][Al]([18F])[O]C(=O)C2)C(=O)O)C(=O)O)(c1ccc(O)cc1)c1ccc(O)cc1", "note": "[[Al^18F]XYIMSR-04]", "values": [{"measurement": "PET/CT tumor imaging finding", "setting": "[1]", "value": "radiotracer uptake in tumor at 1 h post-injection; also recorded: tumor visualization by 1 h post-injection"}, {"measurement": "Biodistribution: Bladder", "setting": "SK-RC-52 xenografts", "value": "20.12 ± 12.51", "unit": "% ID/g"}, {"measurement": "Biodistribution: Blood", "setting": "SK-RC-52 xenografts", "value": "0.65 ± 0.11", "unit": "% ID/g"}, {"measurement": "Biodistribution: Bone", "setting": "SK-RC-52 xenografts", "value": "1.91 ± 1.39", "unit": "% ID/g"}, {"measurement": "Biodistribution: Brain", "setting": "SK-RC-52 xenografts", "value": "0.66 ± 0.04", "unit": "% ID/g"}, {"measurement": "Biodistribution: Fat", "setting": "SK-RC-52 xenografts", "value": "1.54 ± 0.25", "unit": "% ID/g"}, {"measurement": "Biodistribution: Heart", "setting": "SK-RC-52 xenografts", "value": "5.03 ± 0.51", "unit": "% ID/g"}, {"measurement": "Biodistribution: Kidney (kid)", "setting": "SK-RC-52 xenografts", "value": "50.84 ± 2.65", "unit": "% ID/g"}, {"measurement": "Biodistribution: Liver", "setting": "SK-RC-52 xenografts", "value": "5.55 ± 0.91", "unit": "% ID/g"}, {"measurement": "Biodistribution: Lung", "setting": "SK-RC-52 xenografts", "value": "34.07 ± 5.85", "unit": "% ID/g"}, {"measurement": "Biodistribution: Muscle (mm)", "setting": "SK-RC-52 xenografts", "value": "1.74 ± 0.58", "unit": "% ID/g"}, {"measurement": "Biodistribution: Pancreas", "setting": "SK-RC-52 xenografts", "value": "3.47 ± 0.16", "unit": "% ID/g"}, {"measurement": "Biodistribution: Sm. intestine", "setting": "SK-RC-52 xenografts", "value": "9.59 ± 1.04", "unit": "% ID/g"}, {"measurement": "Biodistribution: Spleen", "setting": "SK-RC-52 xenografts", "value": "0.54 ± 0.18", "unit": "% ID/g"}, {"measurement": "Biodistribution: Stomach", "setting": "SK-RC-52 xenografts", "value": "21.62 ± 1.85", "unit": "% ID/g"}, {"measurement": "Biodistribution: Tumor", "setting": "SK-RC-52 xenografts", "value": "14.40 % ID/g and 14.40 ± 2.18 % ID/g"}, {"measurement": "Tumor/Blood ratio", "setting": "SK-RC-52 xenografts", "value": "22.1 and 22.1 ± 1.5"}, {"measurement": "Tumor/kid (kidney) ratio", "setting": "SK-RC-52 xenografts", "value": "0.28 and 0.28 ± 0.03"}, {"measurement": "Tumor/mm (muscle) ratio", "setting": "SK-RC-52 xenografts", "value": "9.74 and 9.74 ± 2.9"}]}]}
